# From US20130237511A1, “Copper Ion Delivery Platform for Pharmaceutical Agents” (University System of Georgia, priority 2012, published 2013)
# Columns and labels:
# [1] = ionic strengths 0.01 to 1, 25 and 37° C.; cited from earlier work
# [2] = tested on: HT29; assay: NCI 60 cell line panel, single dose; format: cell-based; conditions: Colon Cancer
# From the text: (§1) This complex performed at a similar level compared to individual tests for copper(II) sulfate as well as quinine sulfate (NSC).
# [3] = tested on: KM12; assay: NCI 60 cell line panel, single dose; format: cell-based; conditions: Colon Cancer
# From the text: as §1
# [4] = tested on: OVCAR-3; assay: NCI 60 cell line panel, single dose; format: cell-based; conditions: Ovarian Cancer, OVCAR-3, single dose
# From the text: as §1
# [5] = tested on: HS 578T; assay: NCI 60 cell line panel, single dose; format: cell-based; conditions: Breast Cancer
# From the text: as §1
# [6] = tested on: CAKI-1; assay: NCI 60 cell line panel, single dose; format: cell-based; conditions: Renal Cancer, CAKI-1, single dose
# From the text: as §1
# [7] = tested on: M14; assay: NCI 60 cell line panel, single dose; format: cell-based; conditions: Melanoma
# From the text: as §1
# [8] = tested on: NCI/ADR-RES; assay: NCI 60 cell line panel, single dose; format: cell-based; conditions: Ovarian Cancer
# From the text: as §1
# [9] = tested on: EKVX; assay: NCI 60 cell line panel, single dose; format: cell-based; conditions: Non-Small Cell Lung Cancer
# From the text: as §1
# [10] = tested on: HCT-15; assay: NCI 60 cell line panel, single dose; format: cell-based; conditions: Colon Cancer, HCT-15, single dose
# From the text: as §1
# [11] = tested on: HCC-2998; assay: NCI 60 cell line panel, single dose; format: cell-based; conditions: Colon Cancer, HCC-2998, single dose
# From the text: as §1
# [12] = tested on: SK-MEL-28; assay: NCI 60 cell line panel, single dose; format: cell-based; conditions: Melanoma, SK-MEL-28, single dose
# From the text: as §1
# [13] = tested on: CCRF-CEM; assay: NCI 60 cell line panel, single dose; format: cell-based; conditions: Leukemia
# From the text: as §1
# [14] = tested on: DU-145; assay: NCI 60 cell line panel, single dose; format: cell-based; conditions: Prostate Cancer, DU-145, single dose
# From the text: as §1
# [15] = tested on: LOX IMVI; assay: NCI 60 cell line panel, single dose; format: cell-based; conditions: Melanoma
# From the text: as §1
# [16] = tested on: T-47D; assay: NCI 60 cell line panel, single dose; format: cell-based; conditions: Breast Cancer
# From the text: as §1
# [17] = tested on: RXF 393; assay: NCI 60 cell line panel, single dose; format: cell-based; conditions: Renal Cancer, RXF 393, single dose
# From the text: as §1
# [18] = tested on: HOP-92; assay: NCI 60 cell line panel, single dose; format: cell-based; conditions: Non-Small Cell Lung Cancer, HOP-92, single dose
# From the text: as §1
# [19] = tested on: NCI-H226; assay: NCI 60 cell line panel, single dose; format: cell-based; conditions: Non-Small Cell Lung Cancer
# From the text: as §1
# [20] = tested on: ACHN; assay: NCI 60 cell line panel, single dose; format: cell-based; conditions: Renal Cancer
# From the text: as §1
# [21] = tested on: BT-549; assay: NCI 60 cell line panel, single dose; format: cell-based; conditions: Breast Cancer, BT-549, single dose
# From the text: as §1
# [22] = tested on: MDA-MB-231/ATCC; assay: NCI 60 cell line panel, single dose; format: cell-based; conditions: Breast Cancer
# From the text: as §1
# [23] = tested on: OVCAR-8; assay: NCI 60 cell line panel, single dose; format: cell-based; conditions: Ovarian Cancer, OVCAR-8, single dose
# From the text: as §1
# [24] = tested on: MDA-MB-435; assay: NCI 60 cell line panel, single dose; format: cell-based; conditions: Melanoma, MDA-MB-435, single dose
# From the text: as §1
# [25] = tested on: 786-0; assay: NCI 60 cell line panel, single dose; format: cell-based; conditions: Renal Cancer, 786-0, single dose
# From the text: as §1
# [26] = tested on: TK-10; assay: NCI 60 cell line panel, single dose; format: cell-based; conditions: Renal Cancer, TK-10, single dose
# From the text: as §1
# [27] = tested on: NCI-H460; assay: NCI 60 cell line panel, single dose; format: cell-based; conditions: Non-Small Cell Lung Cancer
# From the text: as §1
# [28] = tested on: SW-620; assay: NCI 60 cell line panel, single dose; format: cell-based; conditions: Colon Cancer, SW-620, single dose
# From the text: as §1
# [29] = tested on: HOP-62; assay: NCI 60 cell line panel, single dose; format: cell-based; conditions: Non-Small Cell Lung Cancer, HOP-62, single dose
# From the text: as §1
# [30] = tested on: SK-OV-3; assay: NCI 60 cell line panel, single dose; format: cell-based; conditions: Ovarian Cancer, SK-OV-3, single dose
# From the text: as §1
# [31] = tested on: HCT-116; assay: NCI 60 cell line panel, single dose; format: cell-based; conditions: Colon Cancer, HCT-116, single dose
# From the text: as §1
# [32] = tested on: SK-MEL-2; assay: NCI 60 cell line panel, single dose; format: cell-based; conditions: Melanoma, SK-MEL-2, single dose
# From the text: as §1
# [33] = tested on: NCI-H23; assay: NCI 60 cell line panel, single dose; format: cell-based; conditions: Non-Small Cell Lung Cancer
# From the text: as §1
# [34] = tested on: UACC-62; assay: NCI 60 cell line panel, single dose; format: cell-based; conditions: Melanoma, UACC-62, single dose
# From the text: as §1
# [35] = tested on: MCF7; assay: NCI 60 cell line panel, single dose; format: cell-based; conditions: Breast Cancer
# From the text: as §1
# [36] = tested on: UACC-257; assay: NCI 60 cell line panel, single dose; format: cell-based; conditions: Melanoma, UACC-257, single dose
# From the text: as §1
# [37] = tested on: NCI-H522; assay: NCI 60 cell line panel, single dose; format: cell-based; conditions: Non-Small Cell Lung Cancer
# From the text: as §1
# [38] = tested on: IGROV1; assay: NCI 60 cell line panel, single dose; format: cell-based; conditions: Ovarian Cancer
# From the text: as §1
# [39] = tested on: OVCAR-4; assay: NCI 60 cell line panel, single dose; format: cell-based; conditions: Ovarian Cancer, OVCAR-4, single dose
# From the text: as §1
# [40] = tested on: OVCAR-5; assay: NCI 60 cell line panel, single dose; format: cell-based; conditions: Ovarian Cancer, OVCAR-5, single dose
# From the text: as §1
# [41] = tested on: MOLT-4; assay: NCI 60 cell line panel, single dose; format: cell-based; conditions: Leukemia, MOLT-4, single dose
# From the text: as §1
# [42] = tested on: A549/ATCC; assay: NCI 60 cell line panel, single dose; format: cell-based; conditions: Non-Small Cell Lung Cancer
# From the text: as §1
# [43] = tested on: RPMI-8226; assay: NCI 60 cell line panel, single dose; format: cell-based; conditions: Leukemia, RPMI-8226, single dose
# From the text: as §1
# [44] = tested on: UO-31; assay: NCI 60 cell line panel, single dose; format: cell-based; conditions: Renal Cancer, UO-31, single dose
# From the text: as §1
# [45] = tested on: HL-60(TB); assay: NCI 60 cell line panel, single dose; format: cell-based; conditions: Leukemia
# From the text: as §1
# [46] = tested on: SN12C; assay: NCI 60 cell line panel, single dose; format: cell-based; conditions: Renal Cancer
# From the text: as §1
# [47] = tested on: NCI-H322M; assay: NCI 60 cell line panel, single dose; format: cell-based; conditions: Non-Small Cell Lung Cancer
# From the text: as §1
# [48] = tested on: COLO 205; assay: NCI 60 cell line panel, single dose; format: cell-based; conditions: Colon Cancer, COLO 205, single dose
# From the text: as §1
# [49] = tested on: MDA-MB-468; assay: NCI 60 cell line panel, single dose; format: cell-based; conditions: Breast Cancer, MDA-MB-468, single dose
# From the text: as §1
# [50] = tested on: MALME-3M; assay: NCI 60 cell line panel, single dose; format: cell-based; conditions: Melanoma
# From the text: as §1
# [51] = tested on: SR; assay: NCI 60 cell line panel, single dose; format: cell-based; conditions: Leukemia
# From the text: as §1
# [52] = tested on: SF-268; assay: NCI 60 cell line panel, single dose; format: cell-based; conditions: CNS Cancer, SF-268, single dose
# [53] = tested on: SF-295; assay: NCI 60 cell line panel, single dose; format: cell-based; conditions: CNS Cancer, SF-295, single dose
# [54] = tested on: SNB-75; assay: NCI 60 cell line panel, single dose; format: cell-based; conditions: CNS Cancer, SNB-75, single dose
# [55] = tested on: U251; assay: NCI 60 cell line panel, single dose; format: cell-based; conditions: CNS Cancer
# [56] = tested on: SF-539; assay: NCI 60 cell line panel, single dose; format: cell-based; conditions: CNS Cancer, SF-539, single dose
# [57] = tested on: SNB-19; assay: NCI 60 cell line panel, single dose; format: cell-based; conditions: CNS Cancer, SNB-19, single dose
molecule,measurement,setting,value
C=C[C@H]1C[N@@]2CC[C@H]1C[C@H]2[C@H](O)c1ccnc2ccc(OC)cc12 [Quinine],pKa1,[1],approximately 4.2
same,pKa2,[1],8.5
copper(II)-(quinine)2^+ [CuQ2],Growth Percent,[2],84.68%
same,Growth Percent,[3],91.04%
same,Growth Percent,[4],120%
same,Growth Percent,[5],117.5%
same,Growth Percent,[6],109.9%
same,Growth Percent,[7],101.1%
same,Growth Percent,[8],105%
same,Growth Percent,[9],119.3%
same,Growth Percent,[10],98.35%
same,Growth Percent,[11],108.9%
same,Growth Percent,[12],109.2%
same,Growth Percent,[13],100.1%
same,Growth Percent,[14],113.3%
same,Growth Percent,[15],80.61%
same,Growth Percent,[16],100.1%
same,Growth Percent,[17],139.9%
same,Growth Percent,[18],88.14%
same,Growth Percent,[19],103.6%
same,Growth Percent,[20],100.6%
same,Growth Percent,[21],107.4%
same,Growth Percent,[22],82.36%
same,Growth Percent,[23],103.8%
same,Growth Percent,[24],91.47%
same,Growth Percent,[25],120.5%
same,Growth Percent,[26],115%
same,Growth Percent,[27],105.8%
same,Growth Percent,[28],111%
same,Growth Percent,[29],132.7%
same,Growth Percent,[30],95.07%
same,Growth Percent,[31],96.95%
same,Growth Percent,[32],95.24%
same,Growth Percent,[33],104.3%
same,Growth Percent,[34],84.78%
same,Growth Percent,[35],84.97%
same,Growth Percent,[36],93.34%
same,Growth Percent,[37],94.89%
same,Growth Percent,[38],124.1%
same,Growth Percent,[39],110.4%
same,Growth Percent,[40],116.2%
same,Growth Percent,[41],96.49%
same,Growth Percent,[42],88.43%
same,Growth Percent,[43],105.8%
same,Growth Percent,[44],92.23%
same,Growth Percent,[45],106.2%
same,Growth Percent,[46],109.4%
same,Growth Percent,[47],119.9%
same,Growth Percent,[48],91.74%
same,Growth Percent,[49],117.8%
same,Growth Percent,[50],105.7%
same,Growth Percent,[51],80.32%
same,Growth Percent,[52],125.4%
same,Growth Percent,[53],85.7%
same,Growth Percent,[54],126.4%
same,Growth Percent,[55],83.16%
same,Growth Percent,[56],102.4%
same,Growth Percent,[57],108.7%
